According to patent US6914045B2, “Glycopeptide antibiotics” (Wyeth Holdings Corporation, priority 2001, dated 2005):
≈ marks a conversion by molar mass, not a printed value. Each block holds one compound with its values, some of them ahead of it.

Experiments:
Experiment in all cases: in vitro antibacterial evaluation, MIC by broth dilution
Type in all cases: cell-based
Enterococcus sp. = settings: broth dilution, 18 hours at 35° C.
In short: (§1)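 MIC, the lowest antibiotic concentration preventing growth, was read across 64-0.06 μg/mL with 5×10^5 CFU/mL inoculum. Method followed NCCLS M7-A2 broth dilution using Mueller-Hinton II; Gram-positive strains covered recent methicillin-, penicillin- and/or vancomycin-resistant clinical isolates.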

Staphylococcus sp. = test system: Staphylococcus sp.
In short: as §1

Streptococcus sp. = settings: broth dilution, 18 hours at 35° C.
In short: as §1

Escherichia coli = settings: 18 hours at 35° C.
[1] = strain ATCC 29213; broth dilution, 18 hours at 35° C.
[2] = strain GC 1131; broth dilution, 18 hours at 35° C.
[3] = strain GC 4541; broth dilution, 18 hours at 35° C.
[4] = strain GC 4542; broth dilution, 18 hours at 35° C.
[5] = strain GC 4544; broth dilution, 18 hours at 35° C.
[6] = strain GC 4545; broth dilution, 18 hours at 35° C.
[7] = broth dilution, 18 hours at 35° C.

MIC Enterococcus avium (GC 4558) (Enterococcus sp.): 64 µg/mL (≈ 39.9 µM)
MIC Enterococcus faecalis (ATCC 29212) (Enterococcus sp.): >64 µg/mL
MIC Enterococcus faecalis (GC 2242) (Enterococcus sp.): >64 µg/mL
MIC Enterococcus faecalis (GC 2691) (Enterococcus sp.): >64 µg/mL
MIC Enterococcus faecalis (GC 3059) (Enterococcus sp.): >64 µg/mL
MIC Enterococcus faecalis (GC 4552) (Enterococcus sp.): >64 µg/mL
MIC Enterococcus faecalis (GC 4553) (Enterococcus sp.): 32 µg/mL (≈ 20 µM)
MIC Enterococcus faecalis (GC 4554) (Enterococcus sp.): >64 µg/mL
MIC Enterococcus faecalis (GC 6189) (Enterococcus sp.): >64 µg/mL
MIC Enterococcus faecium (GC 2243) (Enterococcus sp.): 32 µg/mL (≈ 20 µM)
MIC Enterococcus faecium (GC 4556) (Enterococcus sp.): >64 µg/mL
MIC Enterococcus faecium (GC 4557) (Enterococcus sp.): >64 µg/mL
MIC Enterococcus faecalis (ATCC 29212) (Enterococcus sp.; inoculum 5×10^5 CFU/mL, strain ATCC 29212): >64 µg/mL
MIC Enterococcus faecalis (GC 2242) (Enterococcus sp.; inoculum 5×10^5 CFU/mL, strain GC 2242): >64 µg/mL
MIC Enterococcus faecium (GC 2243) (Enterococcus sp.; inoculum 5×10^5 CFU/mL, strain GC 2243): 32 µg/mL (≈ 20 µM)
MIC Enterococcus faecalis (GC 2691) (Enterococcus sp.; inoculum 5×10^5 CFU/mL, strain GC 2691): >64 µg/mL
MIC Enterococcus faecalis (GC 3059) (Enterococcus sp.; inoculum 5×10^5 CFU/mL, strain GC 3059): >64 µg/mL
MIC Enterococcus faecalis (GC 4552) (Enterococcus sp.; inoculum 5×10^5 CFU/mL, strain GC 4552): >64 µg/mL
MIC Enterococcus faecalis (GC 4553) (Enterococcus sp.; inoculum 5×10^5 CFU/mL, strain GC 4553): 32 µg/mL (≈ 20 µM)
MIC Enterococcus faecalis (GC 4554) (Enterococcus sp.; inoculum 5×10^5 CFU/mL, strain GC 4554): >64 µg/mL
MIC Enterococcus faecium (GC 4556) (Enterococcus sp.; inoculum 5×10^5 CFU/mL, strain GC 4556): >64 µg/mL
MIC Enterococcus faecium (GC 4557) (Enterococcus sp.; inoculum 5×10^5 CFU/mL, strain GC 4557): >64 µg/mL
MIC Enterococcus avium (GC 4558) (Enterococcus sp.; inoculum 5×10^5 CFU/mL, strain GC 4558): 64 µg/mL (≈ 39.9 µM)
MIC Enterococcus faecalis (GC 6189) (Enterococcus sp.; inoculum 5×10^5 CFU/mL, strain GC 6189): >64 µg/mL
MIC Staphylococcus aureus (GC 1131) (Staphylococcus sp.; broth dilution, 18 hours at 35° C., inoculum 5×10^5 CFU/mL; strain GC 1131): >64 µg/mL
MIC Staphylococcus aureus (ATCC 29213) (Staphylococcus sp.; [1]): >64 µg/mL
MIC Staphylococcus aureus (GC 1131) (Staphylococcus sp.; [2]): >64 µg/mL
MIC Staphylococcus aureus (GC 3051) (Staphylococcus sp.; strain GC 3051; broth dilution, 18 hours at 35° C.): >64 µg/mL
MIC Staphylococcus aureus (GC 3053) (Staphylococcus sp.; strain GC 3053; broth dilution, 18 hours at 35° C.): >64 µg/mL
MIC Staphylococcus aureus (GC 4541) (Staphylococcus sp.; [3]): >64 µg/mL
MIC Staphylococcus aureus (GC 4542) (Staphylococcus sp.; [4]): >64 µg/mL
MIC Staphylococcus aureus-SMITH (GC 4543) (Staphylococcus sp.; strain GC 4543; broth dilution, 18 hours at 35° C.): >64 µg/mL
MIC Staphylococcus aureus (GC 4544) (Staphylococcus sp.; [5]): >64 µg/mL
MIC Staphylococcus aureus (GC 4545) (Staphylococcus sp.; [6]): >64 µg/mL
MIC Coagulase Negative Staphylococcus (GC 4547) (Staphylococcus sp.; strain GC 4547; broth dilution, 18 hours at 35° C.): >64 µg/mL
MIC Coagulase Negative Staphylococcus (GC 4548) (Staphylococcus sp.; strain GC 4548; broth dilution, 18 hours at 35° C.): >64 µg/mL
MIC Coagulase Negative Staphylococcus (GC 4549) (Staphylococcus sp.; strain GC 4549; broth dilution, 18 hours at 35° C.): >64 µg/mL
MIC Coagulase Negative Staphylococcus (GC 4551) (Staphylococcus sp.; strain GC 4551; broth dilution, 18 hours at 35° C.): >64 µg/mL
MIC Coagulase Negative Staphylococcus (GC 6257) (Staphylococcus sp.; strain GC 6257; broth dilution, 18 hours at 35° C.): >64 µg/mL
MIC Streptococcus agalactiae (GC 4564) (Streptococcus sp.): 1 µg/mL (≈ 0.624 µM)
MIC Streptococcus pneumoniae (ATCC 6301) (Streptococcus sp.): 0.12 µg/mL (≈ 0.0748 µM)
MIC Streptococcus pneumoniae (GC 1894) (Streptococcus sp.): <0.06 µg/mL
MIC Streptococcus pneumoniae (GC 4565) (Streptococcus sp.): <0.06 µg/mL
MIC Streptococcus pyogenes (GC 4563) (Streptococcus sp.): 16 µg/mL (≈ 9.98 µM)
MIC Streptococcus pneumoniae (ATCC 6301) (Streptococcus sp.; inoculum 5×10^5 CFU/mL, strain ATCC 6301): 0.12 µg/mL (≈ 0.0748 µM)
MIC Streptococcus pneumoniae (GC 1894) (Streptococcus sp.; inoculum 5×10^5 CFU/mL, strain GC 1894): <0.06 µg/mL
MIC Streptococcus pyogenes (GC 4563) (Streptococcus sp.; inoculum 5×10^5 CFU/mL, strain GC 4563): 16 µg/mL (≈ 9.98 µM)
MIC Streptococcus agalactiae (GC 4564) (Streptococcus sp.; inoculum 5×10^5 CFU/mL, strain GC 4564): 1 µg/mL (≈ 0.624 µM)
MIC Streptococcus pneumoniae (GC 4565) (Streptococcus sp.; inoculum 5×10^5 CFU/mL, strain GC 4565): <0.06 µg/mL
MIC Escherichia coli (ATCC 25922) (Escherichia coli): >64 µg/mL
MIC Escherichia coli (GC 4559) (Escherichia coli): >64 µg/mL
MIC Escherichia coli (GC 4560) (Escherichia coli): >64 µg/mL
SMILES: CC(C)=CCCC(C)=CCCC(C)=CCOc1cccc(C2OCC3OC(OC4C(CO)OC(Oc5ccc(CC6NC(=O)C(C(C)c7ccccc7)NC(=O)CNC(=O)C(CO)NC(=O)C(C(O)C7CNC(=N)N7C7OC(CO)C(O)C(O)C7O)NC(=O)C(C(O)C7CNC(=N)N7)NC6=O)cc5)C(O)C4O)C(O)C(O)C3O2)c1 (centres unmarked) [Example 185]
MIC Staphylococcus haemolyticus (GC 4546) (Staphylococcus sp.; strain GC 4546; broth dilution, 18 hours at 35° C.): >64 µg/mL

MIC Enterococcus avium (GC 4558) (Enterococcus sp.; Enterococcus avium (GC 4558)): 4 µg/mL (≈ 2.69 µM)
MIC Enterococcus faecalis (ATCC 29212) (Enterococcus sp.; Enterococcus faecalis (ATCC 29212)): 8 µg/mL (≈ 5.37 µM)
MIC Enterococcus faecalis (GC 2242) (Enterococcus sp.; Enterococcus faecalis (GC 2242)): 4 µg/mL (≈ 2.69 µM)
MIC Enterococcus faecalis (GC 4552) (Enterococcus sp.; Enterococcus faecalis (GC 4552)): 8 µg/mL (≈ 5.37 µM)
MIC Enterococcus faecalis (GC 4553) (Enterococcus sp.; Enterococcus faecalis (GC 4553)): 8 µg/mL (≈ 5.37 µM)
MIC Enterococcus faecalis (GC 4554) (Enterococcus sp.; Enterococcus faecalis (GC 4554)): 8 µg/mL (≈ 5.37 µM)
MIC Enterococcus faecium (GC 2243) (Enterococcus sp.; Enterococcus faecium (GC 2243)): 8 µg/mL (≈ 5.37 µM)
MIC Enterococcus faecium (GC 4556) (Enterococcus sp.; Enterococcus faecium (GC 4556)): 8 µg/mL (≈ 5.37 µM)
MIC Enterococcus faecium (GC 4557) (Enterococcus sp.; Enterococcus faecium (GC 4557)): 1 µg/mL (≈ 0.671 µM)
MIC Enterococcus avium (GC 4558) (Enterococcus sp.): 4 µg/mL (≈ 2.69 µM)
MIC Enterococcus faecalis (ATCC 29212) (Enterococcus sp.): 8 µg/mL (≈ 5.37 µM)
MIC Enterococcus faecalis (GC 2242) (Enterococcus sp.): 4 µg/mL (≈ 2.69 µM)
MIC Enterococcus faecalis (GC 4552) (Enterococcus sp.): 8 µg/mL (≈ 5.37 µM)
MIC Enterococcus faecalis (GC 4553) (Enterococcus sp.): 8 µg/mL (≈ 5.37 µM)
MIC Enterococcus faecalis (GC 4554) (Enterococcus sp.): 8 µg/mL (≈ 5.37 µM)
MIC Enterococcus faecium (GC 2243) (Enterococcus sp.): 8 µg/mL (≈ 5.37 µM)
MIC Enterococcus faecium (GC 4556) (Enterococcus sp.): 8 µg/mL (≈ 5.37 µM)
MIC Enterococcus faecium (GC 4557) (Enterococcus sp.): 1 µg/mL (≈ 0.671 µM)
MIC Coagulase Negative Staphylococcus (GC 4547) (Staphylococcus sp.; [7]): 1 µg/mL (≈ 0.671 µM)
MIC Coagulase Negative Staphylococcus (GC 4548) (Staphylococcus sp.; [7]): 0.5 µg/mL (≈ 0.336 µM)
MIC Coagulase Negative Staphylococcus (GC 4549) (Staphylococcus sp.; [7]): 0.5 µg/mL (≈ 0.336 µM)
MIC Coagulase Negative Staphylococcus (GC 4551) (Staphylococcus sp.; [7]): 2 µg/mL (≈ 1.34 µM)
MIC Coagulase Negative Staphylococcus (ID-3941) (Staphylococcus sp.; [7]): 0.5 µg/mL (≈ 0.336 µM)
MIC Staphylococcus aureus-SMITH (GC 4543) (Staphylococcus sp.; [7]): 2 µg/mL (≈ 1.34 µM)
MIC Coagulase Negative Staphylococcus (GC 4547) (Staphylococcus sp.; broth dilution, 18 hours at 35° C.; strain GC 4547): 1 µg/mL (≈ 0.671 µM)
MIC Coagulase Negative Staphylococcus (GC 4548) (Staphylococcus sp.; broth dilution, 18 hours at 35° C.; strain GC 4548): 0.5 µg/mL (≈ 0.336 µM)
MIC Coagulase Negative Staphylococcus (GC 4549) (Staphylococcus sp.; broth dilution, 18 hours at 35° C.; strain GC 4549): 0.5 µg/mL (≈ 0.336 µM)
MIC Coagulase Negative Staphylococcus (GC 4551) (Staphylococcus sp.; broth dilution, 18 hours at 35° C.; strain GC 4551): 2 µg/mL (≈ 1.34 µM)
MIC Coagulase Negative Staphylococcus (ID-3941) (Staphylococcus sp.; broth dilution, 18 hours at 35° C.; strain ID-3941): 0.5 µg/mL (≈ 0.336 µM)
MIC Staphylococcus aureus-SMITH (GC 4543) (Staphylococcus sp.; broth dilution, 18 hours at 35° C.; strain SMITH GC 4543): 2 µg/mL (≈ 1.34 µM)
MIC Staphylococcus aureus (ATCC 29213) (Staphylococcus sp.; [1]): 1 µg/mL (≈ 0.671 µM)
MIC Staphylococcus aureus (GC 1131) (Staphylococcus sp.; [2]): 2 µg/mL (≈ 1.34 µM)
MIC Staphylococcus aureus (GC 4541) (Staphylococcus sp.; [3]): 1 µg/mL (≈ 0.671 µM)
MIC Staphylococcus aureus (GC 4542) (Staphylococcus sp.; [4]): 2 µg/mL (≈ 1.34 µM)
MIC Staphylococcus aureus (GC 4544) (Staphylococcus sp.; [5]): 2 µg/mL (≈ 1.34 µM)
MIC Staphylococcus aureus (GC 4545) (Staphylococcus sp.; [6]): 1 µg/mL (≈ 0.671 µM)
MIC Streptococcus agalactiae (GC 4564) (Streptococcus sp.; Streptococcus agalactiae (GC 4564)): 0.25 µg/mL (≈ 0.168 µM)
MIC Streptococcus pneumoniae (GC 4565) (Streptococcus sp.; Streptococcus pneumoniae (GC 4565)): <0.12 µg/mL
MIC Streptococcus pyogenes (ID-3187) (Streptococcus sp.; Streptococcus pyogenes (ID-3187)): 0.25 µg/mL (≈ 0.168 µM)
MIC Streptococcus agalactiae (GC 4564) (Streptococcus sp.): 0.25 µg/mL (≈ 0.168 µM)
MIC Streptococcus pneumoniae (GC 4565) (Streptococcus sp.): <0.12 µg/mL
MIC Streptococcus pyogenes (ID-3187) (Streptococcus sp.): 0.25 µg/mL (≈ 0.168 µM)
MIC Escherichia coli (ATCC 25922) (Escherichia coli): >128 µg/mL
SMILES: CC(c1ccccc1)C1NC(=O)CNC(=O)C(CO)NC(=O)C(C(O)C2CNC(=N)N2C2OC(CO)C(O)C(O)C2O)NC(=O)C(C(O)C2CNC(=N)N2)NC(=O)C(Cc2ccc(OC3OC(COC(=O)C(c4ccccc4)c4ccccc4)C(OC4OC(CO)C(O)C(O)C4O)C(O)C3O)cc2)NC1=O (stereo not drawn) [Example 96b, Cyclo[glycyl-β-methylphenylalanyl-O-[6-O-(diphenylacetyl)-4-O-hexopyranosylhexopyranosyl]tyrosyl-3-(2-iminoimidazolidin-4-yl)seryl-3-(3-hexopyranosyl-2-iminoimidazolidin-4-yl)serylseryl]]
MIC Staphylococcus haemolyticus (GC 4546) (Staphylococcus sp.; [7]): 1 µg/mL (≈ 0.671 µM)
MIC Staphylococcus haemolyticus (GC 4546) (Staphylococcus sp.; broth dilution, 18 hours at 35° C.; strain GC 4546): 1 µg/mL (≈ 0.671 µM)
